Reference: publication PMC12712055, “3D-MINFLUX nanoscopy reveals distinct allosteric mechanisms for activation and modulation of PIEZO1 by Yoda1” (Nature Communications, 2025)

Assays:
Assay in all cases: calcium imaging (genetically encoded Ca2+ indicator), peak F/F0
Assay type in all cases: cell-based
[1] = target: T1, mouse PIEZO1 (PIEZO1-mScarlet / PIEZO1-ALFA-mGL) (Mus musculus, UniProt E2JF22, F1715A/V1714A)
T1 construct: full-length; C-terminal mScarlet (SG linker), or ALFA tag inserted after H86 plus C-terminal mGreenLantern (SG linker); transiently expressed in N2a-P1KO (mouse Neuro-2a PIEZO1-knockout) cells; homotrimer

[2] = target: T2, mouse PIEZO1 (PIEZO1-mScarlet / PIEZO1-ALFA-mGL) (Mus musculus, UniProt E2JF22)
T2 construct: full-length; C-terminal mScarlet (SG linker), or ALFA tag inserted after H86 plus C-terminal mGreenLantern (SG linker); transiently expressed in N2a-P1KO (mouse Neuro-2a PIEZO1-knockout) cells; homotrimer

[3] = target: T3, mouse PIEZO1 (PIEZO1-mScarlet / PIEZO1-ALFA-mGL) (Mus musculus, UniProt E2JF22, A2094W)
T3 construct: full-length; C-terminal mScarlet (SG linker), or ALFA tag inserted after H86 plus C-terminal mGreenLantern (SG linker); transiently expressed in N2a-P1KO (mouse Neuro-2a PIEZO1-knockout) cells; homotrimer
T3 sequence (E2JF22 whole entry A2094W): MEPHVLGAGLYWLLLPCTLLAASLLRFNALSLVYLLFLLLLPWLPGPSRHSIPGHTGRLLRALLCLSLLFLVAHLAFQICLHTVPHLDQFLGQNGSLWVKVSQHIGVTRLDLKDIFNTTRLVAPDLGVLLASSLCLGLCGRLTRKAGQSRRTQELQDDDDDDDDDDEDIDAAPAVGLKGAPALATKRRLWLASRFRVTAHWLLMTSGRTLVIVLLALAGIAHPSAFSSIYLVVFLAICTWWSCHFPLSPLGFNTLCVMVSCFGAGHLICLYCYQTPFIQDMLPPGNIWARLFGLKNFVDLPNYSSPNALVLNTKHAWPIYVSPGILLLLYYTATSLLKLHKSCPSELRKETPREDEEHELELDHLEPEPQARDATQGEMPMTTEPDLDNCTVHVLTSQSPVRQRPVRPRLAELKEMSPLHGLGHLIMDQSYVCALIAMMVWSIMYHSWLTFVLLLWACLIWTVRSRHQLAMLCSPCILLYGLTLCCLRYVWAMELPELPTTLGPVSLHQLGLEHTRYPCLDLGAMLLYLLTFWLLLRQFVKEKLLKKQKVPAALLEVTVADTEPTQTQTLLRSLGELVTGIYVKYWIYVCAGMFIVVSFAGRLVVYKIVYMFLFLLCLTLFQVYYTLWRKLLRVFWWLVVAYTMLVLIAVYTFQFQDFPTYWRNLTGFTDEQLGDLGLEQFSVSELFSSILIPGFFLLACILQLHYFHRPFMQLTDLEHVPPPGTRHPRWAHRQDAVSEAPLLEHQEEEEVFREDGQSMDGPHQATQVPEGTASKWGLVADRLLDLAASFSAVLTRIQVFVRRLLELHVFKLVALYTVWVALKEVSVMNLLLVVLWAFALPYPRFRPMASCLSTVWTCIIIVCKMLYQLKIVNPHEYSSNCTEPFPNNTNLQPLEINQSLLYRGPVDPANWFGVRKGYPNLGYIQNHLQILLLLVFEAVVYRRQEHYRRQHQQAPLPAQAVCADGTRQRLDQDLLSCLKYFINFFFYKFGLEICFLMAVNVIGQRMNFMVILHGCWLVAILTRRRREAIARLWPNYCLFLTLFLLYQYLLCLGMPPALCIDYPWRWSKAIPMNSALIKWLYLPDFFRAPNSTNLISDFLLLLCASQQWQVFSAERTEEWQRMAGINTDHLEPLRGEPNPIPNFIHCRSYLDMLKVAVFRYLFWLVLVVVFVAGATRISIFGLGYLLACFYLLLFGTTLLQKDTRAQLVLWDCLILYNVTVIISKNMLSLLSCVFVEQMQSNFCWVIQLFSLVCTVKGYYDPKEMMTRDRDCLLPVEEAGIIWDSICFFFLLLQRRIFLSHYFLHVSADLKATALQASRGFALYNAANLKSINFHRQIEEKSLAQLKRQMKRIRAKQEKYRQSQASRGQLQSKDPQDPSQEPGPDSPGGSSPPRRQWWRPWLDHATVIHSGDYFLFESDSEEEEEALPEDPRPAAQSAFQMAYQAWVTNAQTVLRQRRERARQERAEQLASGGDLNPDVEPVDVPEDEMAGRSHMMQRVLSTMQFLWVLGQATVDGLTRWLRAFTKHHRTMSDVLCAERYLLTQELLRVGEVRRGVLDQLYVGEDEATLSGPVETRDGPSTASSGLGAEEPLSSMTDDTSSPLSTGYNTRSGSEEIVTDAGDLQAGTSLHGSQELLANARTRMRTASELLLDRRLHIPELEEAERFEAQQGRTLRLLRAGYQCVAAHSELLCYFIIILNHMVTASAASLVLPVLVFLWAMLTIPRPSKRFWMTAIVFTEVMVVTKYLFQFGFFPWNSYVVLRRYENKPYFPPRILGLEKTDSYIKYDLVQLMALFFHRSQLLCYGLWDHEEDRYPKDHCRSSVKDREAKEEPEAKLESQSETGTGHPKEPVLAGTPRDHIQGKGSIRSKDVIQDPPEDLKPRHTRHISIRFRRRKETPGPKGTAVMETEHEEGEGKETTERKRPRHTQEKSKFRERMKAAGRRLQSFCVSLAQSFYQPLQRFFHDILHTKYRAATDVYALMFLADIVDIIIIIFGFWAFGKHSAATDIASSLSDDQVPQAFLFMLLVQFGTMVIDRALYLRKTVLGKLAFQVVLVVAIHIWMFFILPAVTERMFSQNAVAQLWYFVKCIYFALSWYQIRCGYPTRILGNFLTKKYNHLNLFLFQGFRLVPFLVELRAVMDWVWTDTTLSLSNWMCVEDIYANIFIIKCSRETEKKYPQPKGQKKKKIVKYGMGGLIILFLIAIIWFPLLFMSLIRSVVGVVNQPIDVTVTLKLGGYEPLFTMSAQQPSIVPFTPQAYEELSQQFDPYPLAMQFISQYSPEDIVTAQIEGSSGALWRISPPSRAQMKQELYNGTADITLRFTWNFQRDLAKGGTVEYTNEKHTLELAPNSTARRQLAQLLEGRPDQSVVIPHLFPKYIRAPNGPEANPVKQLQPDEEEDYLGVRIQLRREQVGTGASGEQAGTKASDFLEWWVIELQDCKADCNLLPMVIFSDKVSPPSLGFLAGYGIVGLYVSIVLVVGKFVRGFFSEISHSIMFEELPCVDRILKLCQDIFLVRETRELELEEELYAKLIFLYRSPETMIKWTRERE

T1 sequence (E2JF22 whole entry V1714A/F1715A): as the sequence (E2JF22 whole entry A2094W) above, with V1714A, F1715A, W2094A counted along it
T2 sequence (E2JF22 whole entry): as the sequence (E2JF22 whole entry A2094W) above, with W2094A counted along it

EC50 [1]: 67 nM
EC50 [2]: 30 nM
EC50 [3]: 7.03 µM
Structure (SMILES): O=C(O)c1ccc(-c2nnc(SCc3c(Cl)cccc3Cl)s2)cc1 [Yoda2]
